Experimental data from ChEMBL document CHEMBL4507297, “Data for DCP probe PF-04457845” (2021).

Legend:
[1] = molecular target: Tyrosine-protein kinase Fyn (Homo sapiens) (UniProt P06241); conditions: Compound concentration 1000.0 nM
[2] = molecular target: Insulin-like growth factor 1 receptor (Homo sapiens) (UniProt P08069); conditions: Compound concentration 1000.0 nM
[3] = molecular target: Ribosomal protein S6 kinase alpha-5 (Homo sapiens) (UniProt O75582); conditions: Compound concentration 1000.0 nM
[4] = molecular target: Serine/threonine-protein kinase PAK 4 (Homo sapiens) (UniProt O96013); conditions: Compound concentration 1000.0 nM
[5] = molecular target: Mitogen-activated protein kinase kinase kinase 10 (Homo sapiens) (UniProt Q02779); conditions: Compound concentration 1000.0 nM
Sequence of Mitogen-activated protein kinase kinase kinase 10 (Homo sapiens) (Q02779 whole entry, looked up): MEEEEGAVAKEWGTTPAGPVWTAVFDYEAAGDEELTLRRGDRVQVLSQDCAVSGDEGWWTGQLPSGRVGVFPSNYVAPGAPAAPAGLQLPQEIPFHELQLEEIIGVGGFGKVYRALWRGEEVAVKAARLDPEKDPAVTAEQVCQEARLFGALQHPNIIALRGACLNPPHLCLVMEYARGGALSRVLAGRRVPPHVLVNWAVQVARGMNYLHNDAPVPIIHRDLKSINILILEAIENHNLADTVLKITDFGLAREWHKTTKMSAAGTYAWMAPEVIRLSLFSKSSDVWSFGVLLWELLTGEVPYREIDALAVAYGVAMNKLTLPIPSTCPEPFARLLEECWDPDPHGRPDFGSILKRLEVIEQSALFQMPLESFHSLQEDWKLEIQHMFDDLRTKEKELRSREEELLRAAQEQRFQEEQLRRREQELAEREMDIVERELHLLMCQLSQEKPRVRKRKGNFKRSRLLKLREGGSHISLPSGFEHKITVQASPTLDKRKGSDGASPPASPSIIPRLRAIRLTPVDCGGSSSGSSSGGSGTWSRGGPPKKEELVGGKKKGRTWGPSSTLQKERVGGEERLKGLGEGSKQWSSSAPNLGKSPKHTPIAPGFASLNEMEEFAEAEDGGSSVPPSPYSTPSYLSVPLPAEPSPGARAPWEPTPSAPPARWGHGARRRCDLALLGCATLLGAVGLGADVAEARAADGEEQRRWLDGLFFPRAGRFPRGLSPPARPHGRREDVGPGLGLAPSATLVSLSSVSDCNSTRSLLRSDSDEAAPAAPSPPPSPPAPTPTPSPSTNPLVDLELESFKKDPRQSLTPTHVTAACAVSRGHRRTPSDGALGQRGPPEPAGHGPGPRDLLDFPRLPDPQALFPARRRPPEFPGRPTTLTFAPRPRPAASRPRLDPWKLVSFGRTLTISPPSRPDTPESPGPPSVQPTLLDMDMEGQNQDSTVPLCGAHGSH

[6] = molecular target: T1, Muscarinic acetylcholine receptor M1 (Homo sapiens) (UniProt P11229); conditions: Compound concentration 10.0 uM
T1 sequence (whole entry): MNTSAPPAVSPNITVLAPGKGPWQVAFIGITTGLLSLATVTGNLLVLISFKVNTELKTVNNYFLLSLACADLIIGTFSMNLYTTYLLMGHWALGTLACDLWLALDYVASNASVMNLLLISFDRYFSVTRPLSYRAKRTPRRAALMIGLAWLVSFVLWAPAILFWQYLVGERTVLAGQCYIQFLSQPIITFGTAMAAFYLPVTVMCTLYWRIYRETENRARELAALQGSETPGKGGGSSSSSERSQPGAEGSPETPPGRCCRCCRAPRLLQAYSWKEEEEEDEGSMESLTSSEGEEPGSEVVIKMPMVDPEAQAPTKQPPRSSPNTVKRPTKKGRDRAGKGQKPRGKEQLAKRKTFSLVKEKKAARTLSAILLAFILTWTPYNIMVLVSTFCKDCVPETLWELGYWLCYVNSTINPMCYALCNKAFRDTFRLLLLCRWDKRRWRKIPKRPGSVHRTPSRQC

[7] = molecular target: Phosphatidylinositol 4,5-bisphosphate 3-kinase catalytic subunit gamma isoform (Homo sapiens) (UniProt P48736); conditions: Compound concentration 1000.0 nM
[8] = molecular target: Serine/threonine-protein kinase Chk2 (Homo sapiens) (UniProt O96017); conditions: Compound concentration 1000.0 nM
[9] = molecular target: Receptor-type tyrosine-protein kinase FLT3 (Homo sapiens) (UniProt P36888); conditions: Compound concentration 1000.0 nM
[10] = molecular target: Ephrin type-B receptor 1 (Homo sapiens) (UniProt P54762); conditions: Compound concentration 1000.0 nM
[11] = molecular target: RAF proto-oncogene serine/threonine-protein kinase (Homo sapiens) (UniProt P04049); conditions: Compound concentration 1000.0 nM
[12] = molecular target: Calcium-dependent protein kinase 1 (Plasmodium falciparum) (UniProt P62344); conditions: Compound concentration 1000.0 nM
[13] = system: eIF-2-alpha kinase GCN2 (Homo sapiens), Q9P2K8 [S808G]; conditions: Compound concentration 1000.0 nM
Sequence of eIF-2-alpha kinase GCN2 (Homo sapiens), Q9P2K8 [S808G] (Q9P2K8 whole entry S808G): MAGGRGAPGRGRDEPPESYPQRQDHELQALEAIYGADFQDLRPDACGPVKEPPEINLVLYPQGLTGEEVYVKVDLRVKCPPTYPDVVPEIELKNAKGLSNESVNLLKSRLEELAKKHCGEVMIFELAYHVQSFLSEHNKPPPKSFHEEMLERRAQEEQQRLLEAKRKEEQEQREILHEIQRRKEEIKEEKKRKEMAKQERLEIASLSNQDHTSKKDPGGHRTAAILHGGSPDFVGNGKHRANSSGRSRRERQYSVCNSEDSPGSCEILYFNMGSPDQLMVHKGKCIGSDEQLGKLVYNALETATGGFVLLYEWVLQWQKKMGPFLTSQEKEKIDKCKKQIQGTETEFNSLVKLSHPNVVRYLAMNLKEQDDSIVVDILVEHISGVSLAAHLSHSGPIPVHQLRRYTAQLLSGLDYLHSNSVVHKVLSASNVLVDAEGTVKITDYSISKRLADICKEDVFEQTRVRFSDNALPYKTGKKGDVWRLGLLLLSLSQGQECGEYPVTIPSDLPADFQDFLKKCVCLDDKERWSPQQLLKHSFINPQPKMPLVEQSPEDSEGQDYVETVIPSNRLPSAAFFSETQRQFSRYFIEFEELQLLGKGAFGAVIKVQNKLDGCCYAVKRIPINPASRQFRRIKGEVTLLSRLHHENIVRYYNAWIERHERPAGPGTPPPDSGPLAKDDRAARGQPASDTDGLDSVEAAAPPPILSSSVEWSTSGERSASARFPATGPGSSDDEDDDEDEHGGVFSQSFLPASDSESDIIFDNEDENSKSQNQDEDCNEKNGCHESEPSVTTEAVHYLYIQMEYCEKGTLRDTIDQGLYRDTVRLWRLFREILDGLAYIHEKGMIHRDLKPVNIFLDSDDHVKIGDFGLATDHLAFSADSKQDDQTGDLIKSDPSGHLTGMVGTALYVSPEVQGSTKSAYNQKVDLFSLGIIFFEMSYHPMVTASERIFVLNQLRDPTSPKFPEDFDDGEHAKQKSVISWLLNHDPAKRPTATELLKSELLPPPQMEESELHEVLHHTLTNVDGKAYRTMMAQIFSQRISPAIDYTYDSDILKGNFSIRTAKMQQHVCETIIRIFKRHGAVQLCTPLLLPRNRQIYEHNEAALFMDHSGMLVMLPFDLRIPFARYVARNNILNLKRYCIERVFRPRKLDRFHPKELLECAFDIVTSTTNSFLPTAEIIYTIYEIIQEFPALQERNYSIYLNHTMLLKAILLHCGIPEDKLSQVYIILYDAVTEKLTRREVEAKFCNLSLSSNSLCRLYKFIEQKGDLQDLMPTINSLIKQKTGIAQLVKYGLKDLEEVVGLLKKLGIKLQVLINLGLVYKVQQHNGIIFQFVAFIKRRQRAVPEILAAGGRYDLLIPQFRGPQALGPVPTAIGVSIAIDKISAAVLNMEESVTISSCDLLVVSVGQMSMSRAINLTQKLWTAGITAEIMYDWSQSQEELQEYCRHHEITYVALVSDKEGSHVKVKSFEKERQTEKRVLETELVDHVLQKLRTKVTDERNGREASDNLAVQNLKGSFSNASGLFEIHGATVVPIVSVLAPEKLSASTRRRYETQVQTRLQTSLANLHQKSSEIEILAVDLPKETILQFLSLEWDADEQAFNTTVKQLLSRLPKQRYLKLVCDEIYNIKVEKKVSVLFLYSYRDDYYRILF

[14] = molecular target: Serine/threonine-protein kinase NLK (Homo sapiens) (UniProt Q9UBE8); conditions: Compound concentration 1000.0 nM
[15] = molecular target: Ribosomal protein S6 kinase beta-1 (Homo sapiens) (UniProt P23443); conditions: Compound concentration 1000.0 nM
Sequence of Ribosomal protein S6 kinase beta-1 (Homo sapiens) (P23443 whole entry, looked up): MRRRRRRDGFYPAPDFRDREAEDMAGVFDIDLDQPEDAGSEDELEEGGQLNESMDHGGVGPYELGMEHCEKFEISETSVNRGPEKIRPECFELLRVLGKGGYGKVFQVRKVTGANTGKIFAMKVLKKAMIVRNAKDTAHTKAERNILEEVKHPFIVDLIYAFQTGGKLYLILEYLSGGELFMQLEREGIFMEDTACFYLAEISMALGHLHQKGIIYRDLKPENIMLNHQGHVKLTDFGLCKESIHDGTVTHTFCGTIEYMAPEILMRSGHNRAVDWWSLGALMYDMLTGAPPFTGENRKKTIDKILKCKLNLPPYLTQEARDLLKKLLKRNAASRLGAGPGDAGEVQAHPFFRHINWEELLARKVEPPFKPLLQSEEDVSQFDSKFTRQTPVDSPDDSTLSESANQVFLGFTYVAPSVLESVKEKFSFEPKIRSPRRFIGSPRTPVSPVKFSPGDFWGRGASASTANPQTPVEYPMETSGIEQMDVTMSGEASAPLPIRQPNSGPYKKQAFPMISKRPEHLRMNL

[16] = molecular target: Cyclin-dependent kinase 16 (Homo sapiens) (UniProt Q00536); conditions: Compound concentration 1000.0 nM
[17] = molecular target: Serine/threonine-protein kinase 38-like (Homo sapiens) (UniProt Q9Y2H1); conditions: Compound concentration 1000.0 nM
[18] = molecular target: Ribosomal protein S6 kinase alpha-1 (Homo sapiens) (UniProt Q15418); conditions: Compound concentration 1000.0 nM
[19] = system: Receptor-type tyrosine-protein kinase FLT3 (Homo sapiens), P36888 [UNDEFINED MUTATION]; conditions: Compound concentration 1000.0 nM
[20] = molecular target: Serine/threonine-protein kinase PRP4 homolog (Homo sapiens) (UniProt Q13523); conditions: Compound concentration 1000.0 nM
Sequence of Serine/threonine-protein kinase PRP4 homolog (Homo sapiens) (Q13523 whole entry): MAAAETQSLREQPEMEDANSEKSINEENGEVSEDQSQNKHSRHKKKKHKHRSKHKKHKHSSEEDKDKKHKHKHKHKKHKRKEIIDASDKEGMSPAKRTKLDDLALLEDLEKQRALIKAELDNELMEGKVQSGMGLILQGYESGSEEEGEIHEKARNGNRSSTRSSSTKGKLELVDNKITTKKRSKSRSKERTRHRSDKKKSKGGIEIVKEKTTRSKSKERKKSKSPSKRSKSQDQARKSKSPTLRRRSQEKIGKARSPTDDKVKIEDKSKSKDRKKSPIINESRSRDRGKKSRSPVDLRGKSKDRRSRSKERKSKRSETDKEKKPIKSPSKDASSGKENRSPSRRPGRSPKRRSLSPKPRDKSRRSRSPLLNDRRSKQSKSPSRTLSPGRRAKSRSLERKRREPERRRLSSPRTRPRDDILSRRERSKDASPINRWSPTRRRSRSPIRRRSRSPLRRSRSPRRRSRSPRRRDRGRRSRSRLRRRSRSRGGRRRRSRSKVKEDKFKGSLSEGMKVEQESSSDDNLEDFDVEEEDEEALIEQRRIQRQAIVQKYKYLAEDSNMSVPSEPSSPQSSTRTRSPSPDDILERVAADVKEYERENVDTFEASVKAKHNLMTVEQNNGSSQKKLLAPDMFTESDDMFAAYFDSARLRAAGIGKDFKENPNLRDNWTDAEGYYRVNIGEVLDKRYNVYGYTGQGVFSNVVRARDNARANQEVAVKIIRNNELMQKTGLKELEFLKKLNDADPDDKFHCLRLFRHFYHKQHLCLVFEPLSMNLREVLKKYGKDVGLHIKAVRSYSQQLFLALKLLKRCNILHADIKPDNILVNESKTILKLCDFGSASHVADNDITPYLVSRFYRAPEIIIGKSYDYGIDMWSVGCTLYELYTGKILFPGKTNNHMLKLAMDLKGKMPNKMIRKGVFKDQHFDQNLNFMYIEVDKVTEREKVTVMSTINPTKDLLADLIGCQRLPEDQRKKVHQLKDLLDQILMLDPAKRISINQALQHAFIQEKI

[21] = molecular target: Serine/threonine-protein kinase WNK3 (Homo sapiens) (UniProt Q9BYP7); conditions: Compound concentration 1000.0 nM
[22] = molecular target: MAP kinase-interacting serine/threonine-protein kinase 2 (Homo sapiens) (UniProt Q9HBH9); conditions: Compound concentration 1000.0 nM
[23] = molecular target: cAMP-dependent protein kinase catalytic subunit alpha (Homo sapiens) (UniProt P17612); conditions: Compound concentration 1000.0 nM
[24] = molecular target: T2, 5-hydroxytryptamine receptor 3A (Homo sapiens) (UniProt P46098); conditions: Compound concentration 10.0 uM
T2 sequence (whole entry): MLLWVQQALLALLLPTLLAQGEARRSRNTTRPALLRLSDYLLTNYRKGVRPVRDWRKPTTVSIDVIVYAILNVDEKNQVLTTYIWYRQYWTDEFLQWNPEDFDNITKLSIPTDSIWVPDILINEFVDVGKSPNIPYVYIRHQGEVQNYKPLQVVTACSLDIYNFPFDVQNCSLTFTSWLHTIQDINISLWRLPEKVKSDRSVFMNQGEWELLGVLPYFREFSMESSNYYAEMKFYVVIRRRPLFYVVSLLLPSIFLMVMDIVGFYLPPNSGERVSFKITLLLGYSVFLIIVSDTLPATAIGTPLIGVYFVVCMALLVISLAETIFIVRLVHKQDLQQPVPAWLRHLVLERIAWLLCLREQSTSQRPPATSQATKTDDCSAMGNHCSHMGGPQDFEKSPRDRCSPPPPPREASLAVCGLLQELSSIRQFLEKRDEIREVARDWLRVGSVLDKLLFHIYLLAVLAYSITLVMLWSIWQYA

[25] = molecular target: Serine/threonine-protein kinase SIK2 (Homo sapiens) (UniProt Q9H0K1); conditions: Compound concentration 1000.0 nM
[26] = molecular target: Interleukin-1 receptor-associated kinase 3 (Homo sapiens) (UniProt Q9Y616); conditions: Compound concentration 1000.0 nM
[27] = molecular target: Serine/threonine-protein kinase B-raf (Homo sapiens) (UniProt P15056); conditions: Compound concentration 1000.0 nM
[28] = system: Receptor-type tyrosine-protein kinase FLT3 (Homo sapiens), P36888 [D835V]; conditions: Compound concentration 1000.0 nM
[29] = molecular target: Calcium/calmodulin-dependent protein kinase type II subunit alpha (Homo sapiens) (UniProt Q9UQM7); conditions: Compound concentration 1000.0 nM
[30] = molecular target: Mitogen-activated protein kinase 7 (Homo sapiens) (UniProt Q13164); conditions: Compound concentration 1000.0 nM
[31] = molecular target: Receptor-interacting serine/threonine-protein kinase 1 (Homo sapiens) (UniProt Q13546); conditions: Compound concentration 1000.0 nM
Sequence of Receptor-interacting serine/threonine-protein kinase 1 (Homo sapiens) (Q13546 whole entry): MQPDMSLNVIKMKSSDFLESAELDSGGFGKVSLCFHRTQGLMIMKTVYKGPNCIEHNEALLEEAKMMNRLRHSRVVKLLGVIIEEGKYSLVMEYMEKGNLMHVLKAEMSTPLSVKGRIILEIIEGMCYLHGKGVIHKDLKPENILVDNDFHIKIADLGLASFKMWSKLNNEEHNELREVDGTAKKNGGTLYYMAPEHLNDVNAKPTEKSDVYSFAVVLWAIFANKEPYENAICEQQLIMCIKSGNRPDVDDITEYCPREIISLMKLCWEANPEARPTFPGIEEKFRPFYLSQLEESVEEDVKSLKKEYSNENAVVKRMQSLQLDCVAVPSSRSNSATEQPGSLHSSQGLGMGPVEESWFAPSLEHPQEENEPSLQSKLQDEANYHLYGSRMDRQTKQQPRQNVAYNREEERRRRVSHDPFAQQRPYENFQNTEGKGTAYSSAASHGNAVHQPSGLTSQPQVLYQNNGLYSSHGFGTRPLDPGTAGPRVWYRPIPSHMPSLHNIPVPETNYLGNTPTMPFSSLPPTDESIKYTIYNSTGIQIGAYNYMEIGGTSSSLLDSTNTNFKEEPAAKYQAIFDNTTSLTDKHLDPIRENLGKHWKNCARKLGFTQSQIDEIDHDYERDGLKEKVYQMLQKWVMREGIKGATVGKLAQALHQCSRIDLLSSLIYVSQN

[32] = molecular target: Calcium/calmodulin-dependent protein kinase type IV (Homo sapiens) (UniProt Q16566); conditions: Compound concentration 1000.0 nM

O=C(Nc1cccnn1)N1CCC(=Cc2cccc(Oc3ccc(C(F)(F)F)cn3)c2)CC1
inactive: residual activity [1] 100% | residual activity [2] 87% | residual activity [3] 71% | residual activity [4] 77% | residual activity [5] 100% | inhibition [6] 29.5% | residual activity [7] 100% | residual activity [8] 94% | residual activity [9] 100% | residual activity [10] 100% | residual activity [11] 63% | residual activity [12] 93% | residual activity [13] 87% | residual activity [14] 100% | residual activity [15] 100% | residual activity [16] 100% | residual activity [17] 84% | residual activity [18] 100% | residual activity [19] 100% | residual activity [20] 100% | residual activity [21] 100% | residual activity [22] 100% | residual activity [23] 100% | inhibition [24] 10.7% | residual activity [25] 100% | residual activity [26] 86% | residual activity [27] 93% | residual activity [28] 100% | residual activity [29] 72% | residual activity [30] 100% | residual activity [31] 97% | residual activity [32] 63%

O=C(Nc1cccnn1)N1CC(C/C=C/c2cncc(Oc3ccc(C(F)(F)F)cn3)n2)C1
inactive: residual activity [1] 100% | residual activity [2] 100% | residual activity [3] 100% | residual activity [4] 96% | residual activity [5] 100% | inhibition [6] -6.78% | residual activity [7] 100% | residual activity [8] 100% | residual activity [9] 100% | residual activity [10] 100% | residual activity [11] 100% | residual activity [12] 99% | residual activity [13] 97% | residual activity [14] 100% | residual activity [15] 71% | residual activity [16] 81% | residual activity [17] 100% | residual activity [18] 100% | residual activity [19] 100% | residual activity [20] 100% | residual activity [21] 84% | residual activity [22] 77% | residual activity [23] 93% | inhibition [24] -0.28% | residual activity [25] 100% | residual activity [26] 100% | residual activity [27] 100% | residual activity [28] 77% | residual activity [29] 100% | residual activity [30] 100% | residual activity [31] 100% | residual activity [32] 100%
